Experimental data from patent US9040498B2, “1,2,3-Triazolyl purine derivatives” (RESEARCH FOUNDATION OF THE CITY UNIVERSITY OF NEW YORK, priority 2012, dated 2015).
Read-outs that look alike come from different tables or passages of the source.

What was measured:
HEL cell [1] = experiment: HEL cell effects: cell growth; details: read-out: HEL cell effects cell growth (IC50); concentration required to reduce cell growth by 50%
[2] = test system: ovarian (1A9) cancer cell line; experiment: GI50 against ovarian cancer cell line 1A9; details: read-out: GI50 1A9
[3] = test system: p53KO HCT116 cancer cell line; experiment: GI50 against p53KO HCT116 cancer cell line; details: read-out: GI50 p53KO
[4] = test system: colorectal (HCT116) cancer cell line; experiment: GI50 against colorectal cancer cell line HCT116; details: read-out: GI50 HCT116
[5] = test system: paclitaxel-resistant (PTX10) ovarian cancer cell line; experiment: GI50 against paclitaxel-resistant ovarian cancer cell line PTX10; details: read-out: GI50 PTX10
[6] = test system: paclitaxel-resistant (PTX22) ovarian cancer cell line; experiment: GI50 against paclitaxel-resistant ovarian cancer cell line PTX22; details: read-out: GI50 PTX22
HEL cell [7] = experiment: HEL cell effects: cell morphology (minimum cytotoxic concentration); details: minimum cytotoxic concentration causing microscopically detectable alteration of cell morphology
CMV AD-169 strain = experiment: Anti-CMV activity in HEL cell cultures, AD-169 strain; assay type: cell-based, cytomegalovirus; details: HEL cell cultures, reduce virus plaque formation by 50%, virus input 100 PFU
CMV Davis strain = experiment: Anti-CMV activity in HEL cell cultures, Davis strain; assay type: cell-based, cytomegalovirus; details: reduce virus plaque formation by 50%
cytomegalovirus (CMV) = experiment: Anti-CMV activity in HEL cells (both strains); assay type: cell-based; details: for anti-CMV activity (in words): HEL cells
[8] = test system: vesicular stomatitis virus (VSV); assay type: cell-based; details: human cervix carcinoma HeLa cell cultures; read-out: anti-vesicular stomatitis virus (VSV) activity
[9] = test system: vesicular stomatitis virus (VSV); assay type: cell-based; details: human embryonic lung (HEL) fibroblast cell cultures
[10] = test system: murine leukemia L1210, human lymphocyte CEM, and HeLa cells; experiment: Cytostatic activity against L1210, CEM and HeLa cells; assay type: cell-based; details: for cytostatic activity (in words): L1210, CEM, HeLa; for IC50: range over L1210 (48 h), CEM (72 h), HeLa (96 h)
Description: The cytostatic effects of the test compounds on murine leukemia cells (L1210), human T-lymphocyte cells (CEM) and human cervix carcinoma cells (HeLa) were evaluated as follows: an appropriate number of cells suspended in growth medium were allowed to proliferate in 200-μL-wells of 96-well-microtiter plates in the presence of variable amounts of test compounds at 37° C. in a humidified CO2-controlled atmosphere. After 48 h (L1210), 72 h (CEM) or 96 h (HeLa), the number of cells was counted in a Coulter counter. The IC50 value is defined as the concentration required to inhibit cell proliferation by 50%.

[11] = test system: HeLa and HEL cell cultures
[12] = paclitaxel-resistant ovarian PTX10, four days
[13] = paclitaxel-resistant ovarian PTX22, four days
[14] = HEL cell cultures, virus input 100 PFU
[15] = Human betaherpesvirus 5, HEL cell cultures, virus input 100 PFU

Row | Compound | IC50 (HEL cell [1]) [µM] | GI50 ([2]; ovarian 1A9, four days) [µM] | GI50 ([3]; p53KO HCT116, four days) [µM] | GI50 ([4]; colorectal HCT116, four days) [µM] | GI50 [5, 12] [µM] | GI50 [6, 13] [µM] | HEL cell effects cell morphology (MDC) (HEL cell [7]) [μM] | EC50 (CMV AD-169 strain) [µM] | EC50 (CMV Davis strain; [14]) [µM] | anti-CMV activity (in words) (cytomegalovirus (CMV)) | cytostatic activity (in words) [10] | IC50 [10] [µM] | further results
1 | 2-[4-(Ferrocenyl)-1,2,3-triazol-1H-yl]-2′-deoxyinosine [Compound 29] | > 200 | 41.6 | > 50 | > 50 | > 50 | 18 | >200 |  |  |  |  |  | 
2 | 2-[4-(Ferrocenyl)-1,2,3-triazol-1H-yl]inosine [Compound 22] | 123 | 29.7 | > 50 | > 50 | > 50 | 12.9 | 2190 | 120 | 123 | marginal activity |  |  | 
3 | OC[C@H]1O[C@@H](n2cnc3c(O)nc(-n4cc(-c5ccccc5)nn4)nc32)[C@H](O)[C@@H]1O [Compound 17, 2-[4-(Phenyl)-1,2,3-triazol-1H-yl]inosine] |  | 22.8 | > 50 | > 50 | > 50 | 4.76 | 240 | > 50 | > 50 |  | most cytostatic | 34 to 124 | EC50 [8]: 27 ± 2.4 µM; anti-VSV activity (in words) [9]: could not be confirmed; toxicity observed [11]: 100 to 240 µM
4 | Cc1ccc(-c2cn(-c3nc(O)c4ncn([C@@H]5O[C@H](CO)[C@@H](O)[C@H]5O)c4n3)nn2)cc1 [Compound 18, 2-[4-(4-Methylphenyl)-1,2,3-triazol-1H-yl]inosine] |  | 38 | > 50 | > 50 | > 50 | 13.4 | >240 | 118 | 151 | marginal activity |  |  | 
5 | COc1ccc(-c2cn(-c3nc(O)c4ncn([C@@H]5O[C@H](CO)[C@@H](O)[C@H]5O)c4n3)nn2)cc1 [Compound 19, 2-[4-(4-Methoxyphenyl)-1,2,3-triazol-1H-yl]inosine] | > 230 | 29.5 | > 50 | > 50 | > 50 | 8.56 | >230 |  |  |  |  |  | 
6 | O=C1c2ccccc2C(=O)N1Cc1cn(-c2nc(O)c3ncn([C@@H]4O[C@H](CO)[C@@H](O)[C@H]4O)c3n2)nn1 [Compound 21, 2-[4-(N-Phthalimidomethyl)-1,2,3-triazol-1H-yl]inosine] | > 200 | 6.32 | > 50 | > 50 | > 50 | 14.1 | >200 |  | > 200 |  |  |  | 
7 | CCCCc1cn(-c2nc(O)c3ncn([C@@H]4O[C@H](CO)[C@@H](O)[C@H]4O)c3n2)nn1 [Compound 23, 2-(4-n-Butyl-1,2,3-triazol-1H-yl)inosine] | > 250 | 37 | > 50 | > 50 | > 50 | 28.1 |  | 73 | 39 | somewhat more pronounced |  |  | EC50 (cytomegalovirus (CMV); range over the CMV strains, read-out: EC50 against CMV in HEL cells): 39 to 73 µM
8 | OC[C@H]1O[C@@H](n2cnc3c(O)nc(-n4cc(-c5ccccc5)nn4)nc32)C[C@@H]1O [Compound 25, 2-[4-(Phenyl)-1,2,3-triazol-1H-yl]-2′-deoxyinosine] | 188 | 31 | > 50 | > 50 | > 50 | 14.8 | >250 |  |  | marginal activity |  |  | EC50 (CMV Davis strain; […]): 158 µM
9 | OC[C@H]1O[C@@H](n2cnc3c(N4CCOCC4)nc(-n4cc(-c5ccccc5)nn4)nc32)[C@@H](O)C1O (stereo partly drawn) [Compound 34, 6-(Morpholin-4-yl)-2-(4-phenyl-1,2,3-triazol-1H-yl)-9-(β-D-ribofuranosyl)purine] |  |  |  |  |  |  | 240 |  |  |  | poorly cytostatic | 98 to 185 | EC50 (CMV AD-169 strain; Human betaherpesvirus 5, AD169): > 40 µM; EC50 (CMV Davis strain; [15]): > 40 µM; minimum detectable morphology-altering (cytotoxic) concentration (MCC) (canine kidney MDCK): 8.3 μM; minimum detectable morphology-altering (cytotoxic) concentration (MCC) (HeLa; HeLa (first mention)): 42 μM; minimum detectable morphology-altering (cytotoxic) concentration (MCC) (HeLa; HeLa cells): ≥ 40 μM; minimum detectable morphology-altering (cytotoxic) concentration (MCC) (feline kidney CRFK): 83 μM; minimum detectable morphology-altering (cytotoxic) concentration (MCC) (green monkey kidney Vero): 210 μM; GI50 ([2]; 96 h): 0.18 µM; GI50 ([3]; Homo sapiens, HCT-116, 96 h): 10.4 µM; GI50 ([4]; Homo sapiens, HCT-116, 96 h): 3.7 µM; GI50 ([5]; PTX10, 96 h): 11.7 µM; GI50 ([6]; 96 h): 0.95 µM
10 | OC[C@H]1O[C@@H](n2cnc3c(NCc4ccccc4)nc(-n4cc(-c5ccccc5)nn4)nc32)[C@@H](O)C1O (some centres unmarked) [Compound 35, 6-(N-Benzyl)-2-[4-(phenyl)-1,2,3-triazol-1H-yl]adenosine] |  |  |  |  |  |  | 200 |  |  |  | poorly cytostatic | 90 to 120 | EC50 (CMV AD-169 strain; Human betaherpesvirus 5, AD169): > 40 µM; EC50 (CMV Davis strain; [15]): > 40 µM; GI50 ([2]; 96 h): 5 µM; GI50 ([3]; Homo sapiens, HCT-116, 96 h): > 50 µM; GI50 ([4]; Homo sapiens, HCT-116, 96 h): 43.6 µM; GI50 ([5]; PTX10, 96 h): > 50 µM; GI50 ([6]; 96 h): 24.5 µM
